Assay results published in paper PMC3169403 (Acta Crystallographica Section F: Structural Biology and …, 2011).
Like-named read-outs stand apart in the source and are kept apart here.

Target: T1, BpGCDH; glutaryl-CoA dehydrogenase from B. pseudomallei (Burkholderia pseudomallei, UniProt Q3JP94)
T1 construct: gene BURPS1710b_3237
Details: apo crystal without FAD, pH 7.5, individual soak 10-25 mM

T1 sequence (Q3JP94 1-395 limits assumed): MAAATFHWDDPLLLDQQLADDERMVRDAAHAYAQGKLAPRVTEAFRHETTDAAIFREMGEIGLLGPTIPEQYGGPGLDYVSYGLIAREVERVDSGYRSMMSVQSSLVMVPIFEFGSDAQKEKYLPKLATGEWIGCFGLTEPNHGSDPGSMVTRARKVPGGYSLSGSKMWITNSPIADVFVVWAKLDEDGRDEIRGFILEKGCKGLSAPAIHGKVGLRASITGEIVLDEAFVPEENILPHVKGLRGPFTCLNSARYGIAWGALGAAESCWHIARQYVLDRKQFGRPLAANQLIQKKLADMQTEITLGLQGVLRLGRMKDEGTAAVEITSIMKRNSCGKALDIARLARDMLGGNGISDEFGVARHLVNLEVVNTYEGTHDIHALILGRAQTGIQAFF

SMILES: CC(C)n1c(S(=O)(=O)O)nc2ccccc21 [FOL6421, 1-(1-methylethyl)-1H-benzimidazole-2-sulfonate]
- X-ray crystal structure (fragment soak) (glutaryl (substrate) site, all four active sites, HEPES also modelled at tetramer interface): FOL6421 (PDB entry 3gnc) was observed bound in all four active sites of tetrameric BpGCDH

SMILES: COC(=O)c1cccs1 [FOL544]
- X-ray crystal structure (fragment soak) (glutaryl (substrate) site, one active site per tetramer): FOL544 (methyl thiophene-2-carboxylate; PDB entry 3d6b)

SMILES: CN1CCN(C)c2cc(CN)ccc21 [FOL680, (1,4-dimethyl-1,2,3,4-tetrahydroquinoxalin-6-yl)methylamine]
- X-ray crystal structure (fragment soak) (flavin site of FAD, second molecule in substrate site of one protomer, three per tetramer): FOL680 occupies the binding site for the flavin ring of the FAD cofactor
